Data on 15 compounds can be found in patent US20230416232A1, “PYRIMIDINE COMPOUNDS, COMPOSITIONS, AND MEDICINAL APPLICATIONS THEREOF” (Blueprint Medicines Corporation, priority 2020, published 2023).

For orientation: IC50 means the midpoint of a concentration-inhibition curve.

Where two headings read alike, the source gives them in different places. Some results are limits rather than exact numbers.

What all share (assay type): cell-based
For assay [1], the target named is EGFR(D770_N771insSVD) expressing Ba/F3 stable cell line (Homo sapiens, UniProt P00533, DUP768-770, cells depend on it). The experiment in a line: Cellular proliferation (Alamar Blue) assay, EGFR(D770_N771insSVD) Ba/F3. The gist of the method: (§1)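 72 h proliferation test; compounds at final 10-0.0005 μM in 3-fold dilution series vs DMSO. Cells pre-plated 16-18 h (Ba/F3 15,000/well, A431 5000/well), 37 °C, 5% CO2. Alamar Blue 3 h end-point.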
Sequence of EGFR(D770_N771insSVD) expressing Ba/F3 stable cell line (P00533 with tags, fused parts or gaps DUP768-770): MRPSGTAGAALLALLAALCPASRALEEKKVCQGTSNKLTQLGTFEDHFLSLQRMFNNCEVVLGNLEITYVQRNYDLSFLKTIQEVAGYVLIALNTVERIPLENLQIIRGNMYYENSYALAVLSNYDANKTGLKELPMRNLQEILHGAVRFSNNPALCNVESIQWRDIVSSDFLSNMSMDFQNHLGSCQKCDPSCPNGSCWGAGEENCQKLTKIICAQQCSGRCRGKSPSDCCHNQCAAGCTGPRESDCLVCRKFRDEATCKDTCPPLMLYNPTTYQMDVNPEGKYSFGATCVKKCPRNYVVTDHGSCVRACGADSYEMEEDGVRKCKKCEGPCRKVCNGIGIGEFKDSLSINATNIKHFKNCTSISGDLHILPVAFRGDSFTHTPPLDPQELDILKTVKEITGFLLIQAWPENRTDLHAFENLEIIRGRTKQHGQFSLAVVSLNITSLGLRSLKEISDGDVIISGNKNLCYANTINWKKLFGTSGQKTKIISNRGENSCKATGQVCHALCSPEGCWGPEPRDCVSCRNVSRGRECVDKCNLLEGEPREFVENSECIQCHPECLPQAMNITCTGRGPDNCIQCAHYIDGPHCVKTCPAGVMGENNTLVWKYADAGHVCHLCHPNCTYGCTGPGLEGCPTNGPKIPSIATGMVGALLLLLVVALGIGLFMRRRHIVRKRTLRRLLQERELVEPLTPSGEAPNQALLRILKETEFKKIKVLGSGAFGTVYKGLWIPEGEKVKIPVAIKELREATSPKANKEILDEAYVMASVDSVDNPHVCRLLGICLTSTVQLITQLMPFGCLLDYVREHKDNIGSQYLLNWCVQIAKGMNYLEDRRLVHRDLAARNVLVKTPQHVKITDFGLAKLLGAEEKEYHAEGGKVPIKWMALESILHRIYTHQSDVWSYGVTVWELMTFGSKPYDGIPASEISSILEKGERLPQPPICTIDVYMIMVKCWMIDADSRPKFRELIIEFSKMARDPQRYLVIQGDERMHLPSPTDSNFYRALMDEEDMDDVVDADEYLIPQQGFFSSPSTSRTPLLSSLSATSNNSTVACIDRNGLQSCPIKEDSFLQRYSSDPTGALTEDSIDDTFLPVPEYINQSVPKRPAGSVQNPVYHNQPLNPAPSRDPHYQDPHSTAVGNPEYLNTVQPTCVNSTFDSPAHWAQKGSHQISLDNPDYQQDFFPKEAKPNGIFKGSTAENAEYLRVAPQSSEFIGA
For orientation: Alamar Blue is a resazurin reagent that responds to reducing activity.

Assay [2] deals with EGFR (A767_dupASV) expressing Ba/F3 stable cell line (Homo sapiens, UniProt P00533, DUP767-769, cells depend on it). The experiment in a line: Cellular proliferation (Alamar Blue) assay, EGFR (A767_dupASV) Ba/F3. In short, it runs like this:
as §1

Assay [3] deals with A431 cells. The experiment in a line: Cellular proliferation (Alamar Blue) assay, A431 cells. The following applies: Homo sapiens, A-431, 72 h, read-out: A431 IC50. The gist of the method:
as §1

Assay [4] deals with EGFR (H773insNPH) expressing Ba/F3 stable cell line (Homo sapiens, UniProt P00533, DUP771-773, cells depend on it). The experiment in a line: Cellular proliferation (Alamar Blue) assay, EGFR (H773insNPH) Ba/F3. On the procedure:
Cell line details: • 1. EGFR(D770_N771insSVD) expressing Ba/F3 stable cell line • 2. EGFR (A767_dupASV) expressing Ba/F3 stable cell line • 3. A431 cells • 4. EGFR (H773insNPH) expressing Ba/F3 stable cell line • 5. HER2 (A775_G776insYVMA) expressing Ba/F3 stable cell line
• 1. Seed cells at 5000 for A431 and 15,000 cells for Ba/F3 in 100 μL/well in complete media (for A431: DMEM with 10% FBS and for Ba/F3 cells: RPMI with 10% FBS) in 96-well tissue culture plate. Leave outer wells without cells for background measurements. Incubate at 37 degree Celsius in 5% CO2 humidified incubator for 16-18 hours. • 2. Add 0.025 ml of 5X concentration compound dilution or DMSO control. Final compound concentration range is 10-0.0005 μM prepared in 3-fold serial dilutions. Incubate for 72 hr at 37 degree Celsius in 5% CO2 humidified incubator. • 3. Add 0.0125 ml Alamar Blue™ reagent to each well with multi-channel pipette and tap gently on each side of the plate to mix. Incubate for 3 hours at 37 degree Celsius in 5% CO2 humidified incubator. • 4. […] Data analysis was performed using XLfit 5.5.0.5.

Assay [5] concerns the target HER2 (A775_G776insYVMA) expressing Ba/F3 stable cell line (Homo sapiens, UniProt P04626, DUP772-775, cells depend on it). The experiment in a line: Cellular proliferation (Alamar Blue) assay, HER2 (A775_G776insYVMA) Ba/F3. The following applies: read-out: YVMA IC50. In short, it runs like this:
as §1

[6] abbreviates: HER2 (A775_G776insYVMA) Ba/F3 cells, 72 hr, Alamar Blue.

Sequence of EGFR (H773insNPH) expressing Ba/F3 stable cell line (P00533 with tags, fused parts or gaps DUP771-773): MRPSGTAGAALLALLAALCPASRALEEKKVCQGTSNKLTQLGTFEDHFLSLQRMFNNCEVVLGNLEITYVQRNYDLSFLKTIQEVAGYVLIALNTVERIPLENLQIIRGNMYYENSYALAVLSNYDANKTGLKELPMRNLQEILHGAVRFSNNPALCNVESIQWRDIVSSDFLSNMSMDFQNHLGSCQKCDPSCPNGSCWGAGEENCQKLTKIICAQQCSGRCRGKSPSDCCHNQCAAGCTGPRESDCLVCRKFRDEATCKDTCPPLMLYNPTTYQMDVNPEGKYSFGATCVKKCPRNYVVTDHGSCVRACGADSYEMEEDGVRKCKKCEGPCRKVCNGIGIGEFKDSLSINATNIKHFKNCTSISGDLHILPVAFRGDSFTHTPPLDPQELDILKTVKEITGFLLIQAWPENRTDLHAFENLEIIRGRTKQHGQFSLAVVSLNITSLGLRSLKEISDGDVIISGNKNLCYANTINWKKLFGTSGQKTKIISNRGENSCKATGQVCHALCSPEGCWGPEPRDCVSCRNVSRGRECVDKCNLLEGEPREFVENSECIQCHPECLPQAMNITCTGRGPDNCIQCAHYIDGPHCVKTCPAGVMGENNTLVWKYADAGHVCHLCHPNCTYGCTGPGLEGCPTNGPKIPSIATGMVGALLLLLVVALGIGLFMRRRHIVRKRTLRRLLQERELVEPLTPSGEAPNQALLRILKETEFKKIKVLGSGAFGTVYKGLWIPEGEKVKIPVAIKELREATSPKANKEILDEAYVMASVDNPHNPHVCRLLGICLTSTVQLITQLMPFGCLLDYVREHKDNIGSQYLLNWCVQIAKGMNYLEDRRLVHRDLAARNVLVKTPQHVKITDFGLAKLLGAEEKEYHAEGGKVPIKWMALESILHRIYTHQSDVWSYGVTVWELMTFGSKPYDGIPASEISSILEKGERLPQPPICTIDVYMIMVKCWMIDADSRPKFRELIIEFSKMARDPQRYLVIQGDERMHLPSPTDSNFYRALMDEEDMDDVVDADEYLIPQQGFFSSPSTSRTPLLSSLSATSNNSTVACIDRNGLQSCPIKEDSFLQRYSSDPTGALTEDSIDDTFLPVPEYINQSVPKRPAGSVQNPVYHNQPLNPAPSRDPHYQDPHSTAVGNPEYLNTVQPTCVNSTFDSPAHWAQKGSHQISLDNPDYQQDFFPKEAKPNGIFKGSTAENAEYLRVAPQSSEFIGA
Sequence of EGFR (A767_dupASV) expressing Ba/F3 stable cell line (P00533 with tags, fused parts or gaps DUP767-769): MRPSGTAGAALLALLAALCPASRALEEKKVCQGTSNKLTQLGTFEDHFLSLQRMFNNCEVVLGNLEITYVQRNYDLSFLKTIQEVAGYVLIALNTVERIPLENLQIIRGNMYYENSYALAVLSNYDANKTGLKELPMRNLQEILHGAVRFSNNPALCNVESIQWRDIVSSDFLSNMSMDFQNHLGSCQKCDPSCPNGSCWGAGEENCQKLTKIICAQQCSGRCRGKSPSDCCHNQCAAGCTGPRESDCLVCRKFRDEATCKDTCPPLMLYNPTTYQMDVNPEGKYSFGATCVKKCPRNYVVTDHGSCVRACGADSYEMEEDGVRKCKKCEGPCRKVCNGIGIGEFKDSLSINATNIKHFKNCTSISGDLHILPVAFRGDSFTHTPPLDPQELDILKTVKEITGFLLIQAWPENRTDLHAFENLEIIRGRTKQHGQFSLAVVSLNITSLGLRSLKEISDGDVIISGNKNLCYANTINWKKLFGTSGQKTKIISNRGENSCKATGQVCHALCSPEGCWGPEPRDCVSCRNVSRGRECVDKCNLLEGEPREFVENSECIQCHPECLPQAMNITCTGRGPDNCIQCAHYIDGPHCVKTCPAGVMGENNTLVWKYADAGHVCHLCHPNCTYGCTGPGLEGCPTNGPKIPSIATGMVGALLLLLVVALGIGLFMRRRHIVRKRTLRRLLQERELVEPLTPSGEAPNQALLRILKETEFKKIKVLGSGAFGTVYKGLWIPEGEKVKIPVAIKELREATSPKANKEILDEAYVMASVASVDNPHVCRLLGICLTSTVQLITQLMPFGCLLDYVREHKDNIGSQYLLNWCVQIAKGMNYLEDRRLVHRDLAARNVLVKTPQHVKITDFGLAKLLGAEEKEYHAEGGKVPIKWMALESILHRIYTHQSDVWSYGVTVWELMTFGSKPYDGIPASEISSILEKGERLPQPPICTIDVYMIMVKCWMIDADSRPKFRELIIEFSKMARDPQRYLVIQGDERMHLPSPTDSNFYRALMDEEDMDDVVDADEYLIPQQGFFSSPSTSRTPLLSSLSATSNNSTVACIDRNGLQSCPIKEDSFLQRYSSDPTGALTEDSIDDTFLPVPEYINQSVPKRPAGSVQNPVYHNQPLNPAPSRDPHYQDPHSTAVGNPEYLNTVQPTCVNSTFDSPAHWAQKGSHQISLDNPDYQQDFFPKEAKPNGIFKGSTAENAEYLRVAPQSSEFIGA
Sequence of HER2 (A775_G776insYVMA) expressing Ba/F3 stable cell line (P04626 with tags, fused parts or gaps DUP772-775): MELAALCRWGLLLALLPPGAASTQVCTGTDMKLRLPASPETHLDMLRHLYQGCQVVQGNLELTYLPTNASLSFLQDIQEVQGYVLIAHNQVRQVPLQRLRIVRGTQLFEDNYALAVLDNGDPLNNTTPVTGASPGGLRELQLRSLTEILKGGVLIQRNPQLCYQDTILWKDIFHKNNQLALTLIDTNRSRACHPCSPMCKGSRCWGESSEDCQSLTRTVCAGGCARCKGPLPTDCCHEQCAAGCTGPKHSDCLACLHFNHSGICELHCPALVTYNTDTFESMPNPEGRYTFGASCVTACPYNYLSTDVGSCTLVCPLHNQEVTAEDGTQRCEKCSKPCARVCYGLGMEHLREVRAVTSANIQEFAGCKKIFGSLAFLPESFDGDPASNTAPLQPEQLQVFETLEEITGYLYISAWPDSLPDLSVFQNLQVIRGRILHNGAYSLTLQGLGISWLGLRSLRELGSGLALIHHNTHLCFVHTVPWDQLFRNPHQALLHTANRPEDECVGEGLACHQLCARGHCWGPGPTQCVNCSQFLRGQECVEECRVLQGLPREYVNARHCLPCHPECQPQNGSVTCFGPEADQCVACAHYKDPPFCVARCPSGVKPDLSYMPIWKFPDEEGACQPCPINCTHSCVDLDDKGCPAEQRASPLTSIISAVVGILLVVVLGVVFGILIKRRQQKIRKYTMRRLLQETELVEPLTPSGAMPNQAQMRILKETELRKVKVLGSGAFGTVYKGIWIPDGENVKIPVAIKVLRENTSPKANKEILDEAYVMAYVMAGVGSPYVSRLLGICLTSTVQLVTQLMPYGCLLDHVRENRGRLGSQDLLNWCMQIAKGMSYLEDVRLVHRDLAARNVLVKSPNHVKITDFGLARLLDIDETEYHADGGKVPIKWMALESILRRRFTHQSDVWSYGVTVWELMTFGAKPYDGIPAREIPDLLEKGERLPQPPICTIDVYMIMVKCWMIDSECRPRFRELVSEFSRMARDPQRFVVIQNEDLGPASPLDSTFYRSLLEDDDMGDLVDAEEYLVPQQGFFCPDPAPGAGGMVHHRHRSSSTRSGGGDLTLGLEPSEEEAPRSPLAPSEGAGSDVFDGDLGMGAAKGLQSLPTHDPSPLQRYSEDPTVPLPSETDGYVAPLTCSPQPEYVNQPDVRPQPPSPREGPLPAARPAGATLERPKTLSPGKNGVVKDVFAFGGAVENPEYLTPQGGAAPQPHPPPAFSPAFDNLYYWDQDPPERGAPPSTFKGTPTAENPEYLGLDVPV

As to `C=CC(=O)Nc1ccc(F)c(Nc2nc(Nc3cnn(C)c3)ncc2-c2cc(F)cc(OC)c2)c1` [Compound 65, N-(4-fluoro-3-{[5-(3-fluoro-5-methoxyphenyl)-2-[(1-methyl-1H-pyrazol-4-yl)amino]pyrimidin-4-yl]amino}phenyl)prop-2-enamide], the GI50 was 114 nM in assay [1] (72 hr, read-out: D770 IC50); 226 nM in assay [2] (72 hr, read-out: A767 IC50); 304 nM in assay [4] (72 hr, read-out: NPH IC50); 112 nM in assay [5] (setting [6]). Moreover, the IC50 in assay [3] (A431 cells, 72 hr, Alamar Blue) is 1070 nM.
In the same order, the values of `C=CC(=O)Nc1cccc(Nc2nc(Nc3cnn(C)c3)ncc2-c2ccc(F)c(F)c2)c1` [Compound 67, N-(3-((5-(3,4-difluorophenyl)-2-((1-methyl-1H-pyrazol-4-yl)amino)pyrimidin-4-yl)amino)phenyl)acrylamide] are 36 nM, 41 nM, 100 nM, 60 nM and 213 nM.
For `C=CC(=O)Nc1ccc(F)c(Nc2nc(Nc3cnn(C)c3)ncc2-c2cc(F)cc(F)c2)c1` [Compound 26, N-(3-((5-(3,5-difluorophenyl)-2-((1-methyl-1H-pyrazol-4-yl)amino)pyrimidin-4-yl)amino)-4-fluorophenyl)acrylamide] the same measures were 27 nM, 35 nM, 31 nM, 112 nM and 443 nM.
In the same order, the values of `C=CC(=O)Nc1ccc(F)c(Nc2nc(Nc3cnn(C)c3)ncc2-c2cnc(C)c(Cl)c2)c1` [Compound 46, N-(3-((5-(5-chloro-6-methylpyridin-3-yl)-2-((1-methyl-1H-pyrazol-4-yl)amino)pyrimidin-4-yl)amino)-4-fluorophenyl)acrylamide] are 17 nM, 29 nM, 30 nM, 34 nM and 102 nM.
Consider `C=CC(=O)Nc1ccc(F)c(Nc2nc(Nc3cnn(C)c3)ncc2-c2cc(Cl)cc(Cl)c2)c1` [Compound 32, N-(3-((5-(3,5-dichlorophenyl)-2-((1-methyl-1H-pyrazol-4-yl)amino)pyrimidin-4-yl)amino)-4-fluorophenyl)acrylamide], for which the GI50 stood at 294 nM in assay [1] (72 hr, read-out: D770 IC50); 159 nM in assay [2] (72 hr, read-out: A767 IC50); 160 nM in assay [4] (72 hr, read-out: NPH IC50); 1160 nM in assay [5] (setting [6]). Moreover, the IC50 in assay [3] (A431 cells, 72 hr, Alamar Blue) was above 10000 nM.
In the same order, the values of `C=CC(=O)Nc1ccc(F)c(Nc2nc(Nc3cnn(C)c3)ncc2-c2ccc(C(F)(F)F)c(F)c2)c1` [Compound 35, N-(4-fluoro-3-((5-(3-fluoro-4-(trifluoromethyl)phenyl)-2-((1-methyl-1H-pyrazol-4-yl)amino)pyrimidin-4-yl)amino)phenyl)acrylamide] are 35 nM, 99 nM, 84 nM, 99 nM and 45 nM.
In the case of `C=CC(=O)Nc1cccc(Nc2nc(Nc3cnn(C)c3)ncc2-c2ccc(F)c(Cl)c2)c1` [Compound 49, N-(3-((5-(3-chloro-4-fluorophenyl)-2-((1-methyl-1H-pyrazol-4-yl)amino)pyrimidin-4-yl)amino)phenyl)acrylamide], the GI50 in assay [1] (72 hr, read-out: D770 IC50) came to 38 nM; in assay [2] (72 hr, read-out: A767 IC50), 44 nM; in assay [4] (72 hr, read-out: NPH IC50), 27 nM; in assay [5] (setting [6]), 65 nM. Moreover, the IC50 in assay [3] (A431 cells, 72 hr, Alamar Blue) stood at 246 nM.
Take `C=CC(=O)Nc1ccc(F)c(Nc2nc(Nc3cnn(C)c3)ncc2-c2ccc(OC)c(F)c2)c1` [Compound 1, N-(4-fluoro-3-((5-(3-fluoro-4-methoxyphenyl)-2-((1-methyl-1H-pyrazol-4-yl)amino)pyrimidin-4-yl)amino)phenyl)acrylamide]: the GI50 in assay [1] (72 hr, read-out: D770 IC50) was determined as 36 nM; in assay [2] (72 hr, read-out: A767 IC50), 36 nM; in assay [4] (72 hr, read-out: NPH IC50), 36 nM; in assay [5] (setting [6]), 91 nM. In addition, the IC50 in assay [3] (A431 cells, 72 hr, Alamar Blue) stood at 269 nM.
As to `C=CC(=O)Nc1ccc(F)c(Nc2nc(Nc3cnn(C)c3)ncc2-c2cnc(F)c(C(F)(F)F)c2)c1` [Compound 47, N-(4-fluoro-3-((5-(6-fluoro-5-(trifluoromethyl)pyridin-3-yl)-2-((1-methyl-1H-pyrazol-4-yl)amino)pyrimidin-4-yl)amino)phenyl)acrylamide], the GI50 amounted to 21 nM in assay [1] (72 hr, read-out: D770 IC50); 34 nM in assay [2] (72 hr, read-out: A767 IC50); 20 nM in assay [4] (72 hr, read-out: NPH IC50); 25 nM in assay [5] (setting [6]). Also, the IC50 in assay [3] (A431 cells, 72 hr, Alamar Blue) came out at 46 nM.
Regarding `C=CC(=O)Nc1ccc(F)c(Nc2nc(Nc3cnn(CCN(C)C)c3)ncc2-c2ccc(F)c(Cl)c2)c1` [Compound 57, N-(3-((5-(3-chloro-4-fluorophenyl)-2-((1-(2-(dimethylamino)ethyl)-1H-pyrazol-4-yl)amino)pyrimidin-4-yl)amino)-4-fluorophenyl)acrylamide], the GI50 in assay [1] (read-out: D770 IC50, 72 hr) came to 111 nM; in assay [2] (read-out: A767 IC50, 72 hr) it was 207 nM; in assay [4] (read-out: NPH IC50, 72 hr), 62 nM; in assay [5] (her2 (a775_g776insyvma) expressing ba/f3 stable cell line), 112 nM. In addition, in assay [3], the IC50 was determined as 699 nM.
With `C=CC(=O)Nc1ccc(F)c(Nc2nc(Nc3cnn(C)c3)ncc2-c2cc(C)cc(F)c2)c1` [Compound 64, N-(4-fluoro-3-((5-(3-fluoro-5-methylphenyl)-2-((1-methyl-1H-pyrazol-4-yl)amino)pyrimidin-4-yl)amino)phenyl)acrylamide], the GI50 is 61 nM in assay [1] (72 hr, read-out: D770 IC50); 104 nM in assay [2] (72 hr, read-out: A767 IC50); 95 nM in assay [4] (72 hr, read-out: NPH IC50); 159 nM in assay [5] (setting [6]). The IC50 in assay [3] (A431 cells, 72 hr, Alamar Blue) came out at 554 nM.
With `C=CC(=O)Nc1ccc(F)c(Nc2nc(Nc3cnn(C4COC4)c3)ncc2-c2ccc(Cl)c(Cl)c2)c1` [Compound 56, N-(3-((5-(3,4-dichlorophenyl)-2-((1-(oxetan-3-yl)-1H-pyrazol-4-yl)amino)pyrimidin-4-yl)amino)-4-fluorophenyl)acrylamide], the GI50 was found to be 104 nM in assay [1] (72 hr, read-out: D770 IC50); 95 nM in assay [2] (72 hr, read-out: A767 IC50); 84 nM in assay [4] (72 hr, read-out: NPH IC50); 118 nM in assay [5] (setting [6]). The IC50 in assay [3] (A431 cells, 72 hr, Alamar Blue) stood at 587 nM.
On to `C=CC(=O)Nc1ccc(F)c(Nc2nc(Nc3cnn(C)c3)ncc2-c2ccc(N3CCCCC3)c(F)c2)c1` [Compound 78, N-(4-fluoro-3-((5-(3-fluoro-4-(piperidin-1-yl)phenyl)-2-((1-methyl-1H-pyrazol-4-yl)amino)pyrimidin-4-yl)amino)phenyl)acrylamide], for which the GI50 in assay [1] (72 hr, read-out: D770 IC50) came to 111 nM; in assay [2] (72 hr, read-out: A767 IC50) it was 59 nM; in assay [4] (72 hr, read-out: NPH IC50), 144 nM; in assay [5] (setting [6]) it was 286 nM. In addition, the IC50 in assay [3] (A431 cells, 72 hr, Alamar Blue) was 102 nM.
Take `C=CC(=O)Nc1ccc(F)c(Nc2nc(Nc3cnn(C)c3)ncc2-c2ccc(CN(C)C)c(F)c2)c1` [Compound 60, N-(3-((5-(4-((dimethylamino)methyl)-3-fluorophenyl)-2-((1-methyl-1H-pyrazol-4-yl)amino)pyrimidin-4-yl)amino)-4-fluorophenyl)acrylamide]: the GI50 is 170 nM in assay [1] (72 hr, read-out: D770 IC50); 150 nM in assay [2] (72 hr, read-out: A767 IC50); 462 nM in assay [4] (72 hr, read-out: NPH IC50); 952 nM in assay [5] (setting [6]). Further, in assay [3] (A431 cells, 72 hr, Alamar Blue), the IC50 was 1180 nM.
Regarding `C=CC(=O)Nc1ccc(F)c(Nc2nc(Nc3cnn(C)c3)ncc2-c2ccc(F)c(F)c2)c1` [Compound 5, N-(3-((5-(3,4-difluorophenyl)-2-((1-methyl-1H-pyrazol-4-yl)amino)pyrimidin-4-yl)amino)-4-fluorophenyl)acrylamide], the GI50 in assay [1] (72 hr, read-out: D770 IC50) amounted to 30 nM; in assay [2] (72 hr, read-out: A767 IC50) it was 39 nM; in assay [4] (72 hr, read-out: NPH IC50), 79 nM; in assay [5] (setting [6]), 208 nM. In addition, in assay [3] (A431 cells, 72 hr, Alamar Blue), the IC50 worked out at 200 nM.
